In PMC7613515, “Reading and erasing of the phosphonium analogue of trimethyllysine by epigenetic proteins” (Communications Chemistry, 2022):

Experiments:
TAF3PHD (R857–K924) = target: T1, TAF3PHD (R857–K924) (Mus musculus, UniProt Q5HZG4); assay: ITC, association of histone H3 peptides with TAF3PHD; format: binding, human; conditions: 25 °C, H3 1-10 peptide, Tris (50 mM), pH 7.5, from 3 to 5 experiments, ± SD
T1 construct: TAF3PHD (R857–K924); made in house; host or cells: E. coli
T1 sequence (Q5HZG4 857-924 limits assumed): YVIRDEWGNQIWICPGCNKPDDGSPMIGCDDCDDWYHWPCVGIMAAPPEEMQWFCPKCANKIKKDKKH
Text: (§1) We investigated the thermodynamics of association of the H3KP4me3 peptide with five representative human reader domains containing either a PHD zinc finger or TTD, i.e. KDM5APHD3 (JARID1A-PHD3, residues M1489–V1641)[10], TAF3PHD (R857–K924)[22], BPTFPHD (L2583–N2751)[23], SGF29TTD (R115–K293)[24] and KDM4ATTD (JMJD2A, Q897-P1011)[25], selected on the basis of their preference for binding Ν^ε-trimethyllysine over other (non)methylation marks (Kme0 < Kme1 < Kme2 < Kme3), and their domain and aromatic cage diversity. The recombinant readers were produced in E. coli following reported procedures. Isothermal titration calorimetric (ITC) analyses were used to determine the dissociation constant (Kd), the Gibbs free energy of binding (ΔG°), the enthalpy of binding (ΔH°), and the entropy of binding (ΔS°). […] (Table 1, Fig. 2, Supplementary Fig. 1).
(§2) The following purified reader domains: TAF3PHD (R857-K924), KDM5APHD3 (JARID1A, M1489-V1641), BPTFPHD (L2583-N2751), KDM4ATTD (JMJD2A, Q897-P1011) and SGF29TTD (R115-K293) were prepared as reported[10],[22]–[26]. The histone lysine demethylase were produced and purified to high purity via reported procedures KDM3A (JMJD1A, T515-S1317)[41], KDM4AJmjC[39] (JMJD2A, M1-L359), KDM4EJmjC (JMJD2E, M1–Q337)[34] and KDM7B[40] (PHF8, M37-N483 [NP_001171]). KDM5DJmjC was produced using an N-terminal hexa-His tagged KDM4D (KDM4DM1-L358) DNA construct, transformed into BL21(DE3) competent cells for recombinant protein production. Colonies were used to inoculate of LB media (50 mL) containing kanamycin (50 µg·mL^−1) and chloramphenicol (34 µg·mL^−1), which was placed in a 37 °C shaker overnight. The starter culture (10 mL) was used to inoculate TB media (6 × 1 L) containing kanamycin (50 µg·mL^−1) in 2 L baffled shaker flasks. After reaching an of OD600 of ~0.8, the temperature was reduced to 18 °C; at OD600 ~0.9 the cells were induced by the IPTG (0.5 mM) addition. After shaking overnight, the culture was centrifuged (5000 rpm, 10 mins), the media was decanted, and the cell pellet was suspended in Lysis Buffer [HEPES (50 mM), NaCl (500 mM), imidazole (20 mM), glycerol (5%) and TCEP (0.5 mM) in water (pH 7.4)]. The suspension was lysed by passaging through a high-pressure cell breaker (Avestin – EmulsiFlex-C5) for three rounds. The lysate was cleared by centrifugation (60 minutes, 36,000 × g, 4 °C), then loaded onto a Ni NTA gravity column. […]
(§3) ITC studies followed a reported procedure. […] Histone peptide titrations were performed with the same reader batches. Solutions of the reader in buffer (25–40 µM) and of the histone H3 peptide (350–600 µM) in buffer were prepared. […] Heats of dilution for histone peptides determined in control experiments were subtracted from the titration binding data. […]

[1] = target: T2, KDM5APHD3 (JARID1A-PHD3, residues M1489–V1641) (Homo sapiens, UniProt P29375); assay: ITC, association of histone H3 peptides with KDM5APHD3; format: binding; conditions: 25 °C, H3 1-10 peptide, Tris (50 mM), NaCl (20 mM), pH 7.5, from 3 to 5 experiments, ± SD
T2 construct: KDM5APHD3 (JARID1A-PHD3, residues M1489–V1641); made in house; host or cells: E. coli
T2 sequence (P29375 1489-1641): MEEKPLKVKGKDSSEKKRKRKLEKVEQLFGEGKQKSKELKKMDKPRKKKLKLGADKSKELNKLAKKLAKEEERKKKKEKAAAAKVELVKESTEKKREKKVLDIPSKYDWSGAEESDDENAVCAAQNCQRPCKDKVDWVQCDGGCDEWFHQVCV
Text: as §1, §2, §3

KDM4EJmjC (M1–Q337) = target: T3, KDM4EJmjC (M1–Q337) (Homo sapiens, UniProt B2RXH2); assay: LC-MS demethylation assay, KDM4EJmjC; format: biochemical; conditions: LC-MS time-course, KDM4EJmjC 0.5 µM, peptide 5.0 µM, 22 °C
T3 construct: We chose human KDM4EJmjC (M1–Q337); made in house
T3 sequence (B2RXH2 1-337): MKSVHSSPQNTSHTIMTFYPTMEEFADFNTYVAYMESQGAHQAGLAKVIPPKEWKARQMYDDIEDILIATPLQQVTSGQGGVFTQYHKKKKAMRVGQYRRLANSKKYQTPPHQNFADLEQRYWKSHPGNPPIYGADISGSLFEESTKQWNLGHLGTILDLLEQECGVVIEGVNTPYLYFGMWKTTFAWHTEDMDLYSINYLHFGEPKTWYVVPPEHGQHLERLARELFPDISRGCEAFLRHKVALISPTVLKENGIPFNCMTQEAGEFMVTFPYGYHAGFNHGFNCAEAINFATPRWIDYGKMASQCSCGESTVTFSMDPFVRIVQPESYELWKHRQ
Procedure: KDM4EJmjC demethylation studies of H3_1-15K9me3 or H3_1-15KP9me3 incubations using LC-MS were conducted as reported[31], using Agilent RapidFire 365 and Agilent QTOF 6530 machines. In brief, samples were aspirated under vacuum (~50 µL), passed through a loop (10 µL, 400 ms) and wash on a SPE cartridge A (C4) using solvent A (1.5 mL·min^−1, 4500 ms). Peptides were eluted using solvent B (1.25 mL·min^−1, 4500 ms) and directed to the MS for measurements. The cartridge was equilibrated for the next sample (1.25 mL·min^−1, 500 ms) and needle was cleaned with an organic wash solution. Between each sample, an alternating inorganic, organic and inorganic washes were performed to avoid any potential carry over on the SPE cartridge from previous sample. Solvent A: formic acid (0.1%) in water; Solvent B: formic acid (0.1%), acetonitrile (85%) in water; Inorganic wash: water; Organic wash: acetonitrile. Demethylation reactions were conducted in a temperature-controlled room (22 °C) and the MS machine Real-time monitoring mode. A solution [Peptide (6.0 µM), sodium L-ascorbate (600 µM), (NH4)2Fe(II)(SO4)2 (60 µM), disodium 2OG salt (120 µM) in buffer] […] (100 µL) was added and samples from the solution were taken every 2–2.5 min and measured. Note that the time was recorded between the addition and the first aspiration of the enzymatic reaction mixture [Peptide and Enzyme solution mixture]. […]

Molecule | -TΔS° (TAF3PHD (R857–K924)) | ΔG° (TAF3PHD (R857–K924)) | ΔH° (TAF3PHD (R857–K924)) | -TΔS° [1] | ΔG° [1] | ΔH° [1] | demethylation (KDM4EJmjC (M1–Q337))
C[C@H](N)C(=O)N[C@@H](CCCNC(=N)N)C(=O)N[C@H](C(=O)N[C@@H](CCCC[P+](C)(C)C)C(=O)N[C@@H](CCC(N)=O)C(=O)N[C@H](C(=O)N[C@@H](C)C(=O)N[C@@H](CCCNC(=N)N)C(=O)N[C@@H](CCCCN)C(=O)N[C@@H](CO)C(N)=O)[C@@H](C)O)[C@@H](C)O [H3KP4me3] | 1.1 ± 0.1 kcal/mol | -10.0 ± 0.1 kcal/mol | -11.1 ± 0.1 kcal/mol | 1.9 ± 0.1 kcal/mol | -9.1 ± 0.1 kcal/mol | -11.0 ± 0.1 kcal/mol | 
ARTKQTAR(KPme3)STGGKA [H3KP9me3, histone H3 residues 1–15 with trimethylphosphonium lysine analogue at position 9] |  |  |  |  |  |  | both are substrates
